Biological target: T1, Angiotensin II receptor (Homo sapiens, UniProt P30556+P50052)
T1 sequence (P30556 whole entry): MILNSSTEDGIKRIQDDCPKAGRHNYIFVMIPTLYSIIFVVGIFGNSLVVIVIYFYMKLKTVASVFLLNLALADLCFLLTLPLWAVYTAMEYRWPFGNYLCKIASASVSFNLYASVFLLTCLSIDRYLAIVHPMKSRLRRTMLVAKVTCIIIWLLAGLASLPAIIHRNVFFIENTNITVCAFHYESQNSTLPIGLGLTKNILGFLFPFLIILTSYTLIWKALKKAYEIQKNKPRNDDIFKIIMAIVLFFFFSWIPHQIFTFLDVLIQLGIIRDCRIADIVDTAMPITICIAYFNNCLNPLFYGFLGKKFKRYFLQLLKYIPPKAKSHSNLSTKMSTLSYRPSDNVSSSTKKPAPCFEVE
T1 sequence (P50052 whole entry): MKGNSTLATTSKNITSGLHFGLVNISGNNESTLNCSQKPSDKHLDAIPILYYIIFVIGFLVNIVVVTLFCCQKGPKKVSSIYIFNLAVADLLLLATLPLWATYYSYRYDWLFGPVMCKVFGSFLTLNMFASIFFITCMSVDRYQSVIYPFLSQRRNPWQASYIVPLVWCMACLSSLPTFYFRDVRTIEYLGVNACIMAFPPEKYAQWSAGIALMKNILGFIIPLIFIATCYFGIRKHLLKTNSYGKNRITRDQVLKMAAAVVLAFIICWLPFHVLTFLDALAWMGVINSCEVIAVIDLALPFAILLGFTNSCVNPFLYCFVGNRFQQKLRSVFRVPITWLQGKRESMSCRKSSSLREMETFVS
Test: Inhibitory activity against Angiotensin II receptor
Format: protein assay

Structure (SMILES)	IC50 [nM]
CCCCc1nc(Cl)c(C=O)n1Cc1ccc2c(c1)C1c3ccccc3C2C(C(=O)O)C1C(=O)O (stereo in doubt; 3)	1100
CCCCc1nc(Cl)c(C=O)n1Cc1ccc2c(c1)C1c3ccccc3C2C(C(=O)O)C1C(=O)O (stereo in doubt)	1100
CCCCc1nc(Sc2ccccc2)c(C=O)n1Cc1ccc2c(c1)C1c3ccccc3C2C(c2nn[nH]n2)C1c1nn[nH]n1 (stereo not drawn)	460
CCCCc1nc(Cl)c(C=O)n1Cc1ccc2c(c1)C1c3ccccc3C2C(c2nn[nH]n2)C1c1nn[nH]n1 (stereo not drawn)	90
CCCCc1nc(Cl)c(C=O)n1Cc1ccc2c(c1)C(C(=O)O)c1ccccc1-2 (stereo not drawn)	3600
CCCCc1nc(Cl)c(C=O)n1Cc1ccc2c(c1)C1c3ccccc3C2C(C(=O)O)C1C(=O)O (single isomer, unassigned)	320
CCCCc1nc(Cl)c(C=O)n1Cc1ccc2c(c1)C(Cc1nn[nH]n1)c1ccccc1-2 (stereo not drawn)	5000
CCCCc1nc(Cl)c(C=O)n1Cc1ccc2c(c1)C(O)(C(=O)O)c1ccccc1-2 (stereo not drawn)	> 10000
CCCCc1nc(Cl)c(C=O)n1Cc1ccc2c(c1)C1c3ccccc3C2C(C(=O)O)C1C(=O)O (stereo in doubt; 5)	220

Tested on: Rattus norvegicus
Test: Dose required to lower the blood pressure by 30 mm Hg on intravenous administration in the renal hypertensive rat was determined
Format: functional

Structure (SMILES)	ED30 [mg/kg]
CCCCc1nc(Cl)c(CO)n1Cc1ccc(-c2ccccc2-c2nnn[nH]2)cc1 [LOSARTAN]	0.8

Biological target: T1, Angiotensin II receptor
Test: Inhibitory activity against Angiotensin II receptor was determined
Format: protein assay

IC50 [nM]	Structure (SMILES)
> 10000	CCCCc1nc(Cl)c(COC)n1Cc1ccc(N2C(=O)C3(C)CC(C)(C(=O)O)CC(C)(C3)C2=O)cc1 (stereo not drawn)

Tested on: Rattus norvegicus
Test: Dose required to lower the blood pressure by 30 mm Hg on intravenous administration in the renal hypertensive rat; orally inactive
Format: functional

Structure (SMILES)	ED30 [mg/kg]
CCCCc1nc(Sc2ccccc2)c(C=O)n1Cc1ccc2c(c1)C1c3ccccc3C2C(c2nn[nH]n2)C1c1nn[nH]n1 (stereo not drawn)	0.2
CCCCc1nc(Cl)c(C=O)n1Cc1ccc2c(c1)C1c3ccccc3C2C(c2nn[nH]n2)C1c1nn[nH]n1 (stereo not drawn)	0.115

Reference: ChEMBL document CHEMBL1128117, “Dibenzobicyclo[2.2.2.]octane angiotensin II receptor antagonists” (Bioorg Med Chem Lett, 1995)
